The record followed here is patent US8476043B2, “Inhibitors for the soluble epoxide hydrolase” (The Regents of the University of California, priority 2004, dated 2013).

One assay deals with T1, human sEH (Homo sapiens, UniProt P34913).
T1 construct: made in house
T1 sequence (P34913 1-555): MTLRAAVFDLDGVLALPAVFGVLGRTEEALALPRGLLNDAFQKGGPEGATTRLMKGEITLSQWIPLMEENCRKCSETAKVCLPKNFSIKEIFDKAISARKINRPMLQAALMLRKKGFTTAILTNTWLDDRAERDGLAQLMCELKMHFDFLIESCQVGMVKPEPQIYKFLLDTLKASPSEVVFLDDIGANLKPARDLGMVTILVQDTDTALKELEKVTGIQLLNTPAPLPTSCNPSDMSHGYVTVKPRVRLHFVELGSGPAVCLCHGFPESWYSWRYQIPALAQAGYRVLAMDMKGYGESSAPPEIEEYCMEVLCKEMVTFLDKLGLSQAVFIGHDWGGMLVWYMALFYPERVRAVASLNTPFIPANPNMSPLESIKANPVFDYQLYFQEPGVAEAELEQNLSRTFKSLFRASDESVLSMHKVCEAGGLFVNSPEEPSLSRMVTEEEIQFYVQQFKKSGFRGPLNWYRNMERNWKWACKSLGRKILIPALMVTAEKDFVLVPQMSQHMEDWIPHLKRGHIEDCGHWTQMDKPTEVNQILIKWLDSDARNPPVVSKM
Kind of assay: sEH inhibition, fluorescent assay with cyano(6-methoxy-naphthalen-2-yl)methyl trans-[(3-phenyloxiran-2-yl)methyl]carbonate as substrate. The class given is biochemical. Conditions: Table 5; fluorescent-based assay, 0.96 nM human sEH, pH 7.0, [S] = 5 μM; read-out: Human sEH IC50. The procedure: Recombinant mouse sEH and human sEH were produced in a baculovirus expression system and purified by affinity chromatography. […] Protein concentration was quantified by using the Pierce BCA assay using Fraction V bovine serum albumin as the calibrating standard.
Enzyme activity was measured by monitoring the appearance of 6-methoxy-2-naphthaldehyde. Assays were performed in triplicate. […] IC50 values were determined by regression of at least five datum points, with a minimum of two datum points in the linear region of the curve on either side of the IC50 values. The curve was generated from at least three separate runs, each in triplicate.
For `CC(C)=CCCC(C)CCOC(=O)CCCNC(=O)NC12CC3CC(CC(C3)C1)C2` (stereo not shown) [Compound 798, 4-(3-Adamantan-1-yl-ureido) butyric Acid 3,7-Dimethyl-oct-6-enyl Ester], the IC50 (usually the concentration at which inhibition is half-maximal) came to 7.6 nM.

Staying with this assay, now noted: Table 18b; fluorescent assay with cyano(6-methoxy-naphthalen-2-yl)methyl trans-[(3-phenyloxiran-2-yl)methyl]carbonate as substrate; mean ± SD; read-out: IC50.
`O=C(NC1CCC(Oc2ccc(C(F)(F)F)cn2)CC1)NC12CC3CC(CC(C3)C1)C2` (stereo not shown) [Compound 1513]: the IC50 came out at 50 ± 10 nM. The same measure, in the same setting: next, `O=C(CCCCCCOCCCOCCCc1ccccc1)NC12CC3CC(CC(C3)C1)C2` [Compound 1023]: 70 ± 10 nM; `O=C(O)CCc1ccc(NC(=O)NC23CC4CC(CC(C4)C2)C3)cc1` [Compound 1223]: 10 ± 10 nM.

In the case of `O=C(NC1CCC(OC(=O)c2ccccc2)CC1)NC12CC3CC(CC(C3)C1)C2` (stereo not shown) [Compound 1074], the IC50 turned out to be 10 ± 10 nM. Still for that read-out and setting: next, `CCN(CC)C(=O)OCc1cccc(-c2ccccc2)c1C` [Compound 1464]: 7190 ± 10 nM; `CCOC(=O)c1cccc(NC(=O)CC23CC4CC(CC(C4)C2)C3)c1` [Compound 1452]: 40 ± 10 nM; `O=C(Nc1cccc(C(=O)OC(c2ccccc2)c2ccccc2)c1)NC12CC3CC(CC(C3)C1)C2` [Compound 1182]: 10 ± 10 nM. `O=C(CC12CC3CC(CC(C3)C1)C2)Nc1cccc(C(=O)O)c1` [Compound 1453]: the IC50 is 30 ± 10 nM. Still for that read-out and setting: the value for `O=C(Nc1cccc(OC(=O)c2ccccc2)c1)NC12CC3CC(CC(C3)C1)C2` [Compound 1222] was 10 ± 10 nM; that for `O=C(Nc1ccc(OCCN2CCOCC2)cc1)NC12CC3CC(CC(C3)C1)C2` [Compound 1197] was 10 ± 10 nM; that for `CCOCCOCCOCCOC(=O)CCCCCCCCCCCNC(=O)NC12CC3CC(CC(C3)C1)C2` [Compound 1067] was 10 ± 10 nM. For the compound `COCOc1cc(F)c(COC2CCC(NC(=O)NC34CC5CC(CC(C5)C3)C4)CC2)c(F)c1` (stereo not shown) [Compound 1105], the IC50 was determined as 10 ± 10 nM. Take `O=C(Nc1ccc(O)c(Cl)c1)NC12CC3CC(CC(C3)C1)C2` [Compound 1446]: the 50% inhibitory concentration (IC50) came to 10 ± 10 nM.

Take `CC(=O)c1cccc(NC(=O)NC23CC4CC(CC(C4)C2)C3)c1` [Compound 1192]: the IC50 stood at 10 ± 10 nM.

For `O=C(Nc1cccc(C(=O)NCCCN2CCOCC2)c1)NC12CC3CC(CC(C3)C1)C2` [Compound 1166], the IC50 amounted to 60 ± 10 nM. The same measure, in the same setting: next, `O=C(Nc1ccccc1)NC1CCC(OCc2c(F)cccc2F)CC1` (stereo not shown) [Compound 1147]: 10 ± 10 nM. Still for that read-out and setting: the value for `O=C(CCCCCCOCCCc1ccccc1)NC12CC3CC(CC(C3)C1)C2` [Compound 1027] was 20 ± 10 nM; that for `O=C(Nc1cccc(C(=O)NCCN2CCCC2)c1)NC12CC3CC(CC(C3)C1)C2` [Compound 1198] was 10 ± 10 nM; that for `O=C(Nc1ccc(Cl)cc1)NC1CCC(Oc2ccc(F)cc2)CC1` (stereo not shown) [Compound 1514] was 10 ± 10 nM.

Turning to `O=C(CCCCCCOCCc1ccccc1)NC12CC3CC(CC(C3)C1)C2` [Compound 1070], the IC50 is 30 ± 10 nM. The same measure, in the same setting: next, `O=C(NC1CCC(OCc2ccccc2C(F)(F)F)CC1)NC12CC3CC(CC(C3)C1)C2` (stereo not shown) [Compound 1143]: 10 ± 10 nM; `O=C(NCCOCc1ccc2ccccc2c1)NCCOCc1ccc2ccccc2c1` [Compound 1117]: 1120 ± 10 nM; `Cc1c(COC(=O)N(C(C)C)C(C)C)cccc1-c1ccccc1` [Compound 1465]: 1230 ± 10 nM. On the same count and under the same terms, the value for `CCOCCOCCOCCCCCCNC(=O)NC12CC3CC(CC(C3)C1)C2` [Compound 1130] was 10 ± 10 nM; that for `O=C(Cc1ccc(NC(=O)NC23CC4CC(CC(C4)C2)C3)cc1)NC(C(=O)NCC(C(=O)O)c1c[nH]c2ccccc12)c1ccccc1` (stereo not shown) [Compound 1425] was 10 ± 10 nM; that for `O=C(Nc1cccc(C(=O)NCCN2CCOCC2)c1)NC12CC3CC(CC(C3)C1)C2` [Compound 1165] was 60 ± 10 nM. The same measure, in the same setting: next, `O=C(CC12CC3CC(CC(C3)C1)C2)NC12CC3CC(CC(O)(C3)C1)C2` [Compound 1064]: 40 ± 10 nM; `CCOC(=O)COc1ccc(NC(=O)NC23CC4CC(CC(C4)C2)C3)cc1` [Compound 1184]: 10 ± 10 nM; `O=C(O)Cc1cccc(NC(=O)NC23CC4CC(CC(C4)C2)C3)c1` [Compound 1225]: 20 ± 10 nM. In the case of `O=C(NCCCCCOCCN1CCOCC1)NC12CC3CC(CC(C3)C1)C2` [Compound 1196], the IC50 was 10 ± 10 nM. Still for that read-out and setting: the value for `O=C(NCCCCCOCCCN1CCS(=O)(=O)CC1)NC12CC3CC(CC(C3)C1)C2` [Compound 1131] was 10 ± 10 nM.

In the case of `CCOC(=O)c1ccc(C(OC(=O)C2CCCC(NC(=O)NC34CC5CC(CC(C5)C3)C4)C2)c2ccccc2)cc1` (stereo not shown) [Compound 1066], the IC50 was 10 ± 10 nM. Still for that read-out and setting: the value for `O=C(NC1CCCC(C(=O)OC(c2ccccc2)c2ccccc2)C1)NC12CC3CC(CC(C3)C1)C2` (stereo not shown) [Compound 1437] was 10 ± 10 nM; that for `COCC(=O)c1ccc(OC2CCC(NC(=O)NC34CC5CC(CC(C5)C3)C4)CC2)cc1` (stereo not shown) [Compound 1470] was 10 ± 10 nM. `CCC(=O)Oc1ccc(NC(=O)NC23CC4CC(CC(C4)C2)C3)cc1` [Compound 1221]: the concentration for half-maximal inhibition (IC50) was 10 ± 10 nM. Still for that read-out and setting: next, `CCC(=O)Oc1cccc(NC(=O)NC23CC4CC(CC(C4)C2)C3)c1` [Compound 1194]: 10 ± 10 nM; `O=C(NCCCCCCCCO)NC12CC3CC(CC(C3)C1)C2` [Compound 1449]: 10 ± 10 nM; `O=C(O)CCc1cccc(NC(=O)NC23CC4CC(CC(C4)C2)C3)c1` [Compound 1226]: 10 ± 10 nM. The same measure, in the same setting: next, `O=C(Nc1ccc(I)cc1)NC1CCC(Oc2ccc(F)cc2)CC1` (stereo not shown) [Compound 1518]: 10 ± 10 nM; `COCOc1cc(F)c(COC2CCC(NC(=O)NC34CC5CC(CC(C5)C3)C4)CC2)c(F)c1` (stereo not shown) [Compound 1106]: 10 ± 10 nM; `O=C(Nc1cccc(Oc2ccccc2)c1)NC12CC3CC(CC(C3)C1)C2` [Compound 1195]: 10 ± 10 nM. For `O=C(Nc1ccc(Br)cc1)NC1CCC(Oc2ccc(F)cc2)CC1` (stereo not shown) [Compound 1516], the IC50 turned out to be 10 ± 10 nM. Consider `O=C(O)Cc1ccc(NC(=O)NC23CC4CC(CC(C4)C2)C3)cc1` [Compound 1178], for which the IC50 came out at 10 ± 10 nM. The same measure, in the same setting: the value for `CC(C)N(C(=O)Oc1cccc(-c2ccccc2)c1)C(C)C` [Compound 1460] was 10920 ± 10 nM; that for `O=C(NC1CCC(OCc2ccccc2F)CC1)NC12CC3CC(CC(C3)C1)C2` (stereo not shown) [Compound 1150] was 10 ± 10 nM. Still for that read-out and setting: the value for `O=C(O)CCCCCCCNC(=O)NC12CC3CC(CC(C3)C1)C2` [Compound 1214] was 10 ± 10 nM; that for `O=C(Nc1cccc(C(=O)Nc2ccc(N3CCOCC3)cc2)c1)NC12CC3CC(CC(C3)C1)C2` [Compound 1440] was 70 ± 10 nM.

As for `O=C(Nc1ccc(O)cc1)NC12CC3CC(CC(C3)C1)C2` [Compound 1183], the IC50 is 20 ± 10 nM. Same read-out and setting: the value for `O=C(O)CCCCCNC(=O)NC12CC3CC(CC(C3)C1)C2` [Compound 1213] was 170 ± 10 nM; that for `O=C(Nc1ccc(OC(F)(F)C(=O)O)cc1)NC12CC3CC(CC(C3)C1)C2` [Compound 1444] was 10 ± 10 nM; that for `CCOC(=O)C(F)(F)Oc1ccc(NC(=O)NC23CC4CC(CC(C4)C2)C3)cc1` [Compound 1443] was 10 ± 10 nM.

In the case of `O=C(NC1CCCCCC1)NC1CCC(Oc2ccc(F)cc2)CC1` (stereo not shown) [Compound 1515], the half-inhibitory concentration (IC50) amounted to 10 ± 10 nM. On the same count and under the same terms, the value for `O=C(Nc1ccc(OCCN2CCOCC2)c(Cl)c1)NC12CC3CC(CC(C3)C1)C2` [Compound 1447] was 10 ± 10 nM; that for `COc1ccc(NC(=O)NC23CC4CC(CC(C4)C2)C3)cc1O` [Compound 1191] was 10 ± 10 nM; that for `O=C(NC12CC3CC(CC(C3)C1)C2)N[C@H]1CC[C@H](OC(=O)c2ccc([N+](=O)[O-])cc2)CC1` (relative stereo) [Compound 1076, trans-4-Nitro-benzoic acid 4-(3-tricyclo[3.3.1.13,7]decan-1-yl-ureido)-cyclohexyl ester] was 10 ± 10 nM. The same measure, in the same setting: the value for `O=C(O)COc1ccc(NC(=O)NC23CC4CC(CC(C4)C2)C3)cc1` [Compound 1185] was 140 ± 10 nM; that for `O=C(NC1CCCC(C(=O)NCCOCCO)C1)NC12CC3CC(CC(C3)C1)C2` (stereo not shown) [Compound 1022] was 40 ± 10 nM.

As to `CC(C)N(C(=O)Oc1cccc(-c2ccccc2)c1)C(C)C` [Compound 1463], the IC50 turned out to be 11890 ± 10 nM. On the same count and under the same terms, next, `CCCCCOC(=O)CCCNC(=O)C12CC3CC(CC(C3)C1)C2` [Compound 1068]: 390 ± 10 nM; `O=C(Nc1cc(O)ccc1Cl)NC12CC3CC(CC(C3)C1)C2` [Compound 1189]: 20 ± 10 nM. Same read-out and setting: next, `O=C(NCCCCCOCCCCCN1CCS(=O)(=O)CC1)NC12CC3CC(CC(C3)C1)C2` [Compound 1031]: 10 ± 10 nM; `O=C(Nc1ccc(OCCN2CCOCC2)cc1Cl)NC12CC3CC(CC(C3)C1)C2` [Compound 1448]: 10 ± 10 nM. On the same count and under the same terms, the value for `CC(C)(Oc1ccc(NC(=O)NC23CC4CC(CC(C4)C2)C3)cc1)C(=O)OCc1ccccc1` [Compound 1441] was 10 ± 10 nM.
